Experimental data reported in BindingDB's records for doi:10.1021/cc050016r (Uppsala University, 2005).
pKi: −log10 of the molar value. Where “and” joins values, the source holds several entries; their conditions need not be identical. Equal entries are not always repeated.

Molecular target: HIV-1 protease (Human immunodeficiency virus, UniProt Q9YQ34)
Assay: Fluorometric Assay
From the text: Fluorometric assay using HIV-1 protease.

Sequence of HIV-1 protease (Q9YQ34 whole entry): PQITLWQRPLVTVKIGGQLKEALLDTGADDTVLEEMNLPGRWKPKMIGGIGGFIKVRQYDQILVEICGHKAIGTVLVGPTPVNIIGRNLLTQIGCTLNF

Row | Structure (SMILES) | pKi
1 | CNC(=O)c1ccccc1CO[C@@H](C(=O)N[C@H](C(=O)NC)C(C)C)[C@H](O)[C@@H](O)[C@@H](OCc1ccccc1C(=O)NC)C(=O)N[C@H](C(=O)NC)C(C)C [HIV-1 Protease Inhibitor, 6a] | < 5.30
2 | CNC(=O)[C@@H](NC(=O)[C@H](OCc1ccccc1C(=O)NC(C)(C)C)[C@H](O)[C@@H](O)[C@@H](OCc1ccccc1C(=O)NC(C)(C)C)C(=O)N[C@H](C(=O)NC)C(C)C)C(C)C [HIV-1 Protease Inhibitor, 6b] | 6.15
3 | CCCCNC(=O)c1ccccc1CO[C@@H](C(=O)N[C@H](C(=O)NC)C(C)C)[C@H](O)[C@@H](O)[C@@H](OCc1ccccc1C(=O)NCCCC)C(=O)N[C@H](C(=O)NC)C(C)C [HIV-1 Protease Inhibitor, 6c] | 6.22
4 | CNC(=O)[C@@H](NC(=O)[C@H](OCc1ccccc1C(=O)N1CCCC1)[C@H](O)[C@@H](O)[C@@H](OCc1ccccc1C(=O)N1CCCC1)C(=O)N[C@H](C(=O)NC)C(C)C)C(C)C [HIV-1 Protease Inhibitor, 6d] | 6.40
5 | CNC(=O)[C@@H](NC(=O)[C@H](OCc1ccccc1C(=O)N1CCOCC1)[C@H](O)[C@@H](O)[C@@H](OCc1ccccc1C(=O)N1CCOCC1)C(=O)N[C@H](C(=O)NC)C(C)C)C(C)C [HIV-1 Protease Inhibitor, 6e] | < 5.30
6 | CNC(=O)[C@@H](NC(=O)[C@H](OCc1ccccc1C(=O)NC1CCCCC1)[C@H](O)[C@@H](O)[C@@H](OCc1ccccc1C(=O)NC1CCCCC1)C(=O)N[C@H](C(=O)NC)C(C)C)C(C)C [HIV-1 Protease Inhibitor, 6f] | 6.70 and 6.71
7 | CNC(=O)[C@@H](NC(=O)[C@H](OCc1ccccc1C(=O)Nc1nccs1)[C@H](O)[C@@H](O)[C@@H](OCc1ccccc1C(=O)Nc1nccs1)C(=O)N[C@H](C(=O)NC)C(C)C)C(C)C [HIV-1 Protease Inhibitor, 6g] | 6.15
8 | CNC(=O)[C@@H](NC(=O)[C@H](OCc1ccccc1C(=O)Nc1ccccc1)[C@H](O)[C@@H](O)[C@@H](OCc1ccccc1C(=O)Nc1ccccc1)C(=O)N[C@H](C(=O)NC)C(C)C)C(C)C [HIV-1 Protease Inhibitor, 6h] | 8.15 and 7.70
9 | CNC(=O)[C@@H](NC(=O)[C@H](OCc1ccccc1C(=O)Nc1cccnc1)[C@H](O)[C@@H](O)[C@@H](OCc1ccccc1C(=O)Nc1cccnc1)C(=O)N[C@H](C(=O)NC)C(C)C)C(C)C [HIV-1 Protease Inhibitor, 6i] | 7.15 and 6.93
10 | CNC(=O)[C@@H](NC(=O)[C@H](OCc1ccccc1C(=O)N1CCc2ccccc21)[C@H](O)[C@@H](O)[C@@H](OCc1ccccc1C(=O)N1CCc2ccccc21)C(=O)N[C@H](C(=O)NC)C(C)C)C(C)C [HIV-1 Protease Inhibitor, 6j] | 6.10
11 | CCOC(=O)c1ccc(NC(=O)c2ccccc2CO[C@@H](C(=O)N[C@H](C(=O)NC)C(C)C)[C@H](O)[C@@H](O)[C@@H](OCc2ccccc2C(=O)Nc2ccc(C(=O)OCC)cc2)C(=O)N[C@H](C(=O)NC)C(C)C)cc1 [HIV-1 Protease Inhibitor, 6k] | 6.70
12 | CNC(=O)[C@@H](NC(=O)[C@H](OCc1ccccc1C(=O)Nc1cccc(Cl)c1)[C@H](O)[C@@H](O)[C@@H](OCc1ccccc1C(=O)Nc1cccc(Cl)c1)C(=O)N[C@H](C(=O)NC)C(C)C)C(C)C [HIV-1 Protease Inhibitor, 6l] | 8.22 and 8.07
13 | CNC(=O)[C@@H](NC(=O)[C@H](OCc1ccccc1C(=O)NCc1ccccc1)[C@H](O)[C@@H](O)[C@@H](OCc1ccccc1C(=O)NCc1ccccc1)C(=O)N[C@H](C(=O)NC)C(C)C)C(C)C [HIV-1 Protease Inhibitor, 6m] | 5.70 and 5.88
14 | CNC(=O)[C@@H](NC(=O)[C@H](OCc1ccccc1C(=O)Nc1cccc2cnccc12)[C@H](O)[C@@H](O)[C@@H](OCc1ccccc1C(=O)Nc1cccc2cnccc12)C(=O)N[C@H](C(=O)NC)C(C)C)C(C)C [HIV-1 Protease Inhibitor, 6n] | 6.10
15 | CNC(=O)c1cccc(CO[C@@H](C(=O)N[C@H](C(=O)NC)C(C)C)[C@H](O)[C@@H](O)[C@@H](OCc2cccc(C(=O)NC)c2)C(=O)N[C@H](C(=O)NC)C(C)C)c1 [HIV-1 Protease Inhibitor, 7a] | 7.70
16 | CCCCNC(=O)c1cccc(CO[C@@H](C(=O)N[C@H](C(=O)NC)C(C)C)[C@H](O)[C@@H](O)[C@@H](OCc2cccc(C(=O)NCCCC)c2)C(=O)N[C@H](C(=O)NC)C(C)C)c1 [HIV-1 Protease Inhibitor, 7b] | 8.52 and 8.19
17 | CNC(=O)[C@@H](NC(=O)[C@H](OCc1cccc(C(=O)N2CCCC2)c1)[C@H](O)[C@@H](O)[C@@H](OCc1cccc(C(=O)N2CCCC2)c1)C(=O)N[C@H](C(=O)NC)C(C)C)C(C)C [HIV-1 Protease Inhibitor, 7c] | 6.70
18 | CNC(=O)[C@@H](NC(=O)[C@H](OCc1cccc(C(=O)N2CCOCC2)c1)[C@H](O)[C@@H](O)[C@@H](OCc1cccc(C(=O)N2CCOCC2)c1)C(=O)N[C@H](C(=O)NC)C(C)C)C(C)C [HIV-1 Protease Inhibitor, 7d] | 6.52
19 | CNC(=O)[C@@H](NC(=O)[C@H](OCc1cccc(C(=O)NC2CCCCC2)c1)[C@H](O)[C@@H](O)[C@@H](OCc1cccc(C(=O)NC2CCCCC2)c1)C(=O)N[C@H](C(=O)NC)C(C)C)C(C)C [HIV-1 Protease Inhibitor, 7e] | 7.70
20 | CNC(=O)[C@@H](NC(=O)[C@H](OCc1cccc(C(=O)Nc2ccccc2)c1)[C@H](O)[C@@H](O)[C@@H](OCc1cccc(C(=O)Nc2ccccc2)c1)C(=O)N[C@H](C(=O)NC)C(C)C)C(C)C [HIV-1 Protease Inhibitor, 7f] | 8.15
21 | CNC(=O)[C@@H](NC(=O)[C@H](OCc1cccc(C(=O)NCc2ccccc2)c1)[C@H](O)[C@@H](O)[C@@H](OCc1cccc(C(=O)NCc2ccccc2)c1)C(=O)N[C@H](C(=O)NC)C(C)C)C(C)C [HIV-1 Protease Inhibitor, 7g] | 8.70 and 8.54
